Data taken from patent US20100137398A1, “USE OF HDAC INHIBITORS FOR THE TREATMENT OF GASTROINTESTINAL CANCERS” (NOVARTIS AG, priority 2007, published 2010).

How the values were obtained:
Assay in all cases: Monolayer growth inhibition assay (MTT/MTS)
Type in all cases: cell-based
[1] = tested on: C2Bbe-1 colon cancer cell line
Description: (§1) The MTT is a colorimetric assay to determine the cell proliferation rate. The yellow tetrazolium MTT (3-(4, 5-dimethylthiazolyl-2)-2, 5-diphenyltetrazolium bromide) is reduced, by metabolically active cells, in part by the action of dehydrogenase enzymes, to generate reducing equivalents such as NADH and NADPH. The resulting intracellular purple formazan can be solubilized and quantified by spectrophotometric means. The signals produced is directly proportional to the cell numbers. Describing the MTT assay in detail, experiments were done using six-point or 9 point drug titrations in multi-well tissue culture dishes, with outer rows left empty. Cells were suspended in complete media at densities of between 10^3 and 10^4 cell/ml, respectively, and added per well. The appropriate medium (200 μl) was then added. Twenty-four hours later, 10 μl of MTS solution, were added to one plates to determine the activity at the time of compound addition (T0). This plate was incubated at 37° for 4 hours and the optical density was measured on a Molecular Devices Thermomax at 490 nm using the Softmax program. The T0 plate served as a reference for initial activity at the beginning of the experiment.
(§2) Compound addition began 24 hours after seeding, the same time as the T0 determination. Serial dilutions at 4-fold 2-fold, 1-fold, 0.5-fold, 0.25-fold and 0.125-fold of previously determined IC50 values of each compound were made in a 96-deep well plate with the highest concentrations on the edge of the plate. Each of the six dilutions were added in triplicate and complete medium was added to the empty outer rows, without cells. The compounds were added to the plates singly or in combination with Compound III (LBH589). The plates were incubated at 37° C. for 72 hours from seeding. The MTS solution was added (as for the T0 plate) and read four hours later. In order to analyze the data, the average value of media alone (background) was subtracted from each experimental well and the triplicate values were averaged for each compound dilution. The following formulas were used to calculate percent growth.
(§3) If X>T0, % Growth=100×(X−T0)/(GC−T0))
(§4) If X<T0, % Growth=100×(X−T0)/T0)
(§5) T0=average value of T0 minus background
(§6) GC=average value of untreated cells (in triplicate) minus background X=average value, of compound treated cells (in triplicate) minus background
(§7) IC50 the concentration of LBH589 required to inhibit cell growth by 50% and LD50s the concentration required to reduce cell number (kill cells) to 50% the original innoculum were determined. The “% Growth” was plotted against compound concentration and used to calculate IC50s and LD50s, employing the user-defined spline function in Microsoft Excel.
(§8) Colon cancer cell lines were treated with DMSO vehicle control or varying concentrations of LBH589 for 3 days. Cell proliferation was measured on the day of cell plating and on the third day post-treatment. IC50 and LD50 values were calculated as described above.

[2] = tested on: LOVO colon cancer cell line
Description: as §1, §2, §3, §4, §5, §6, §7, §8

[3] = tested on: HCT116 colon cancer cell line
Description: as §1, §2, §3, §4, §5, §6, §7, §8

[4] = tested on: CL-11 colon cancer cell line
Description: as §1, §2, §3, §4, §5, §6, §7, §8

[5] = tested on: HT55 colon cancer cell line
Description: as §1, §2, §3, §4, §5, §6, §7, §8

[6] = tested on: KM20L2 colon cancer cell line
Description: as §1, §2, §3, §4, §5, §6, §7, §8

[7] = tested on: LS1034 colon cancer cell line
Description: as §1, §2, §3, §4, §5, §6, §7, §8

[8] = tested on: Colo206F colon cancer cell line
Description: as §1, §2, §3, §4, §5, §6, §7, §8

[9] = tested on: HT29 colon cancer cell line
Description: as §1, §2, §3, §4, §5, §6, §7, §8

[10] = tested on: SW948 colon cancer cell line
Description: as §1, §2, §3, §4, §5, §6, §7, §8

[11] = tested on: Colo741 colon cancer cell line
Description: as §1, §2, §3, §4, §5, §6, §7, §8

[12] = tested on: C170 colon cancer cell line
Description: as §1, §2, §3, §4, §5, §6, §7, §8

[13] = tested on: SW837 colon cancer cell line
Description: as §1, §2, §3, §4, §5, §6, §7, §8

[14] = tested on: SNU-C1 colon cancer cell line
Description: as §1, §2, §3, §4, §5, §6, §7, §8

[15] = tested on: RKO colon cancer cell line
Description: as §1, §2, §3, §4, §5, §6, §7, §8

[16] = tested on: T84 colon cancer cell line
Description: as §1, §2, §3, §4, §5, §6, §7, §8

[17] = tested on: LS174T colon cancer cell line
Description: as §1, §2, §3, §4, §5, §6, §7, §8

[18] = tested on: HCT8 colon cancer cell line
Description: as §1, §2, §3, §4, §5, §6, §7, §8

[19] = tested on: Colo678 colon cancer cell line
Description: as §1, §2, §3, §4, §5, §6, §7, §8

[20] = 3 days, concentration reducing cell number to 50% of original inoculum
[21] = Homo sapiens, 72 h, 3 days treatment

## Cc1[nH]c2ccccc2c1CCNCc1ccc(/C=C/C(=O)NO)cc1 [LBH589, N-hydroxy-3-[4-[[[2-(2-methyl-1H-indol-3-yl)ethyl]-amino]methyl]phenyl]-2E-2-propenamide]
[1]; C2Bbe-1, 3 days, concentration reducing cell number to 50% of original inoculum
  LD50: 243.12 nM
[1]; Homo sapiens, C2BBe1, 72 h, C2Bbe-1, 3 days treatment
  IC50: 27.5 nM
[2]; [20]
  LD50: 52.01 nM
[2]; [21]
  IC50: 4.37 nM
[3]; HCT116, 3 days, concentration reducing cell number to 50% of original inoculum
  LD50: 51.72 nM
[3]; Homo sapiens, HCT-116, 72 h, HCT116, 3 days treatment
  IC50: 7.11 nM
[4]; 72 h, CL-11, 3 days treatment
  IC50: 3.54 nM
[4]; CL-11, 3 days, concentration reducing cell number to 50% of original inoculum
  LD50: 25.92 nM
[5]; HT55, 3 days, concentration reducing cell number to 50% of original inoculum
  LD50: 334.52 nM
[5]; Homo sapiens, 72 h, HT55, 3 days treatment
  IC50: 8.21 nM
[6]; Homo sapiens, KM-20L2, 72 h, KM20L2, 3 days treatment
  IC50: 14.6 nM
[6]; KM20L2, 3 days, concentration reducing cell number to 50% of original inoculum
  LD50: 16.95 nM
[7]; Homo sapiens, LS-1034, 72 h, LS1034, 3 days treatment
  IC50: 76.7 nM
[7]; LS1034, 3 days, concentration reducing cell number to 50% of original inoculum
  LD50: 227.83 nM
[8]; [20]
  LD50: >10 µM
[8]; COLO 206F, 72 h, 3 days treatment
  IC50: 10.1 nM
[9]; HT29, 3 days, concentration reducing cell number to 50% of original inoculum
  LD50: 70.23 nM
[9]; Homo sapiens, HT-29, 72 h, HT29, 3 days treatment
  IC50: 2.83 nM
[10]; Homo sapiens, 72 h, SW948, 3 days treatment
  IC50: 5.06 nM
[10]; SW948, 3 days, concentration reducing cell number to 50% of original inoculum
  LD50: 34.92 nM
[11]; Colo741, 3 days, concentration reducing cell number to 50% of original inoculum
  LD50: 33.73 nM
[11]; Homo sapiens, COLO-741, 72 h, Colo741, 3 days treatment
  IC50: 9.22 nM
[12]; C170, 3 days, concentration reducing cell number to 50% of original inoculum
  LD50: 382.03 nM
[12]; Homo sapiens, 72 h, C170, 3 days treatment
  IC50: 62.3 nM
[13]; Homo sapiens, 72 h, SW837, 3 days treatment
  IC50: 0.66 nM
[13]; SW837, 3 days, concentration reducing cell number to 50% of original inoculum
  LD50: 11.46 nM
[14]; Homo sapiens, 72 h, SNU-C1, 3 days treatment
  IC50: 4.51 nM
[14]; SNU-C1, 3 days, concentration reducing cell number to 50% of original inoculum
  LD50: 26.07 nM
[15]; 72 h, 3 days treatment
  IC50: 5.57 nM
[15]; [20]
  LD50: 2346.13 nM
[16]; 72 h, T84, 3 days treatment
  IC50: 2.16 nM
[16]; T84, 3 days, concentration reducing cell number to 50% of original inoculum
  LD50: 32.82 nM
[17]; [20]
  LD50: 87.41 nM
[17]; [21]
  IC50: 16.8 nM
[18]; HCT8, 3 days, concentration reducing cell number to 50% of original inoculum
  LD50: 77.70 nM
[18]; Homo sapiens, HCT-8, 72 h, HCT8, 3 days treatment
  IC50: 4.94 nM
[19]; Colo678, 3 days, concentration reducing cell number to 50% of original inoculum
  LD50: 45.52 nM
[19]; Homo sapiens, COLO-678, 72 h, Colo678, 3 days treatment
  IC50: 5.6 nM
